Reference: patent US11058744B2, “Composition for treating prostate cancer” (GemVax & KAEL Co., Ltd., priority 2013, dated 2021)

Experiments:
[1] = test system: prostate cancer having a hormone tolerance; details: Beer et al, 2001; cited from earlier work
LNCaP cell line = assay: Transwell migration assay on LNCaP cell line; assay type: cell-based, human; details: medium containing docetaxel (3 nM), no Pep1
Method: The effects of Pep1 on cancer cell migration were evaluated by trans-well assay.
The cancer cell migration was evaluated by using the reagents and materials and the cell line incubation method which are described in connection with Example 1. A migration assay method used for this experiment is as follows.
The LNCaP cell line was incubated on a 6-well plate overnight, and then treated with various concentrations of Pep1 (0, 1, 10, 30 μM) and incubated for 24 hours. Thereafter, the resultant LNCaP cell line was seeded at the cell population of 1×10^4/well on a trans-well plate. Three hours after, the upper compartment of each well was removed, and cells that had migrated downwards were immobilized, stained, and quantified.
A separate experiment was further performed to identify cell migration when Pep1 was co-administered with docetaxel. The LNCaP cell line was incubated on a 6-well plate overnight, and then, treated with various concentrations of Pep1(0, 1, 3, 10, and 30 μM) and incubated for 24 hours. Additionally, the cell line was incubated in a growth medium containing docetaxel (3 nM) for 48 hours, and then, seeded on a trans-well plate at a cell population of 1×10^4/well. Three hours after, the upper compartment of each well was removed, and cells that had migrated downwards were immobilized, stained, and quantified. […]

prostate cancer = details: administered together with docetaxel; Henly et al 2012; cited from earlier work

In the case of CC(=O)O[C@@]12CO[C@@H]1C[C@H](O)[C@@]1(C)C(=O)[C@H](O)C3=C(C)[C@@H](OC(=O)[C@H](O)[C@@H](NC(=O)OC(C)(C)C)c4ccccc4)C[C@@](O)([C@@H](OC(=O)c4ccccc4)[C@H]21)C3(C)C [docetaxel], the treatment efficiency [1] is listed as “about 40%” and the “cancer cell migration (migrated cell number)” value (LNCaP cell line) is listed as “the cancer cell migration was increased”.
For Nc1cccc2c1CN(C1CCC(=O)NC1=O)C2=O (stereo not drawn) [lenalidomide], the anti-cancer effects (prostate cancer) is given as “anti-cancer effects are significantly increased”.
